Assay results: US5723496A, “Method for prevention and treatment of harmful effects of intracellular acidosis” (priority 1995, dated 1998)
Several values for one entry are separate records, joined by “and”; a condition that tells them apart may be missing. Equal values may be shown once. Entries after “also recorded” stand apart in the source; their conditions may differ.

How the values were obtained:
[1] = cited from earlier work
[2] = test system: brains of newborn rat pups; assay: brain intracellular pH and lactate of rat pups before and after 7.5 min anoxia (in vivo NMR); set-up: species or system Sprague-Dawley rats
Method: A Nicolet NMR System NT-200 (4.7T) was used for NMR experiments. Mice, rats or pups (Sprague-Dawley) were lightly anesthetized with ketamine hydrochloride, 50 mg/kg I.P., and placed in the NMR probe which contained an oval surface coil (one turn, 8×12 mm diameter) tunable to the resonance frequency of the proton and ^31 P. To eliminate signal contamination, scalp and temporal muscle were retracted. Field homogeneity was maximized by skimming on water proton signals. To produce anoxia, 100% nitrogen gas was rapidly infused (14 l/min) into the probe chamber. Anoxia could be reversed by infusion of air. Calibration studies using an oxygen meter (OM-1 Biological oxygen Meter, Micro-electrodes, Inc.) confirmed that this technique produced complete O2 depletion in the chamber or its reversal within 1 minute. ^1 H spectra were obtained at 199.97 MHz=z using a 1331-.tau.-2662 spin echo sequence with a .tau. delay of 68 ms (spectral width: 2 KHz, memory block: 4K, recycle time 2.7 seconds). The interpulse delay of the Hore sequence was adjusted so that the lactate resonance experienced least attenuation. ^31 P spectra were obtained at 80.99 MHz using a one pulse sequence (spectral width: 6 KHz, memory block: 4K, recycle time 2.7 seconds). The free induction decay (FID) like signals from remaining water proton signals were eliminated by applying sine function […]. The broad resonance with short T2 on ^31 P NMR spectra was removed using the convolution difference technique. Line broadening of 5 Hz and 30 Hz were applied as noise filter for proton and ^31 P spectra, respectively.
These animals were designated to be the experimental group. Physiological saline was administered to the control group of rats. Each group consisted of 10 animals.
On the last day of the administration, i.e. at day 10, the animals were each fixed in a special chamber set within a 4.7 T nuclear magnetic resonance apparatus. […]
The pH level and the lactate concentration in the cerebral cells before and after anoxia were measured by nuclear magnetic resonance spectroscopy using the procedure described above.

[3] = test system: adult mice exposed to anoxia; assay: survival of adult mice exposed to anoxia; assay type: in vivo, Adult Swiss mice; set-up: mortality, 2.5 minutes of anoxia / protection against 2.5 minutes anoxia: concentration or dose not given beside the values
Method: Adult Swiss mice (BK-1 males, 20 g) purchased from Bantin & Kingman, Fremont, Calif. were used. Each batch consisted of 10 mice. Within each batch five mice were selected randomly as experimental animals and the remaining five as controls. Experimental mice received daily intraperitoneal injections of 0.25 ml of GES (50 mg/ml) for 14 days.
At day 14, all mice within the same batch (5 experimental and 5 each of the […]) were placed in a specially designed chamber (26.5×24.5×21.0 cm). Anoxia/hypoxia was produced by infusion of pure nitrogen gas ([…]) into the chamber for 2.5 or 2.75 minutes. Anoxia/hypoxia was reversed immediately after these intervals by removing the chamber and placing the mice in a room air environment.
The results are shown in FIG. 1 and discussed in detail above.

[4] = set-up: species or system Adult Swiss mice; details: mouse, in vivo
Method: (§1) Adult Swiss mice (BK-1 male 20 g) purchased from Bantin & Kingman, Fremont, Calif., were used. Each batch consisted of 15 mice. Within each batch, five mice were selected randomly to be in the GES, taurine, or control group. A taurine group was included to serve as additional control.
Arterial blood gas sample was collected by puncture of the lower portion of the descending aorta under pentobarbital anesthesia. Analysis was performed on a Corning 168 Blood Gas Analyzer.

anaerobic glycolysis = assay: brain lactate after 2.5 min anoxia; assay type: in vivo, Adult Swiss mice
Method: as §1
Brain lactate levels were determined for mice exposed to 2.5 minutes of anoxia as follows. Animals were exposed to 2.5 minutes of anoxia under pentobarbital anesthesia. Immediately after the exposure, animals were immersed into a liquid nitrogen. The frozen brains were removed by chiseling and extracted as described above. Lactate concentration was determined using the lactate dehydrogenase reaction.

[5] = observation of behavior and respiratory pattern; assay type: in vivo, Adult Swiss mice; details: mouse, in vivo, ip
Text: as §1

[6] = in vivo; cited from earlier work

SMILES	pKa value [1]	effect on pH depression in anoxia (in words) [2]	brain pH after anoxia ([2]; taurine 16 mmol/kg/day i.p., after 7.5 min anoxia)	brain pH before anoxia ([2]; taurine 16 mmol/kg/day i.p., day 10)	protection against anoxia / survival (in words) [3]	mortality, 2.5 minutes of anoxia ([3]; 14 days i.p. pretreatment)	protection against 2.5 minutes anoxia ([3]; FIG. 1) [%]	arterial pCO2 [4] [mmHg]	arterial pH [4]	arterial pO2 [4] [mmHg]	Lactate (anaerobic glycolysis; Table 4, n = 5, post 2.5 min anoxia) [mM]	lactate levels post 2.5 min anoxia (in words) (anaerobic glycolysis; among three groups)	observable adverse effects in behavior or respiratory pattern [5]	blood-brain barrier crossing (in words) [6]
O=S(=O)(O)CCN1CCOCC1 [MES, 2-(N-morpholino) ethane sulfonic acid, reference compound]	6.1													
Nc1ncnc2c1ncn2[C@@H]1O[C@H](COP(=O)(O)OP(=O)(O)OP(=O)(O)O)[C@@H](O)[C@H]1O [adenosine triphosphate (ATP), adenosine triphosphate]	6.95													
NCCS(=O)(=O)O [taurine, 2-amineethanesulfonic acid, reference compound]		pH depression is considerably prevented	7.0	7.3	no difference between taurine pretreated animals (column B) and saline pretreated animal	40% and 60%	40	41.26 ± 5.39	7.26 ± 0.04	97.7 ± 12.9	0.48 ± 0.08	essentially identical among the three groups	did not show any observable adverse effects	does not cross the blood-brain barrier in adult mice; also recorded: does not cross the blood brain barrier freely in the adult mouse; also recorded: does cross the blood-brain barrier in newborns but it has no such effect in the adults
